Measurements: PubChem BioAssay (NCI)
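Where inhibition never reached the appropriate level, the endpoint shown equals the highest concentration tested. Otherwise, values were interpolated linearly from a five-concentration, 48-hour dose response in 96-well plates. At the GI50, growth is halved. TGI: concentration producing complete growth inhibition.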

Assays:
Assay in all cases: NCI anticancer screen, dose series, 48 h
786-0 renal = tested on: 786-0 renal
A498 renal = tested on: A498 renal
A549 NSCLC = tested on: A549 NSCLC
ACHN renal = tested on: ACHN renal
BT-549 breast = tested on: BT-549 breast
CAKI-1 renal = tested on: CAKI-1 renal
CCRF-CEM leukemia = tested on: CCRF-CEM leukemia
COLO 205 colon = tested on: COLO 205 colon
DU-145 prostate = tested on: DU-145 prostate
EKVX NSCLC = tested on: EKVX NSCLC
HCC-2998 colon = tested on: HCC-2998 colon
HCT-116 colon = tested on: HCT-116 colon
HCT-15 colon = tested on: HCT-15 colon
HL-60(TB) leukemia = tested on: HL-60(TB) leukemia
HOP-62 NSCLC = tested on: HOP-62 NSCLC
HOP-92 NSCLC = tested on: HOP-92 NSCLC
HS 578T breast = tested on: HS 578T breast
HT29 colon = tested on: HT29 colon
IGROV1 ovarian = tested on: IGROV1 ovarian
K-562 leukemia = tested on: K-562 leukemia
KM12 colon = tested on: KM12 colon
LOX IMVI melanoma = tested on: LOX IMVI melanoma
M14 melanoma = tested on: M14 melanoma
MALME-3M melanoma = tested on: MALME-3M melanoma
MCF7 breast = tested on: MCF7 breast
MDA-MB-231 breast = tested on: MDA-MB-231 breast
MDA-MB-435 = tested on: MDA-MB-435
MDA-MB-468 breast = tested on: MDA-MB-468 breast
MOLT-4 leukemia = tested on: MOLT-4 leukemia

In the case of `O=c1oc2ccc(-c3ccc(F)cc3F)cc2c(=O)n1-c1ccc(F)cc1`, the GI50 (786-0 renal) was 5.51 µM, the TGI (786-0 renal) was 53.7 µM and the GI50 (A498 renal) was 1.91 µM. It also gave a TGI (A498 renal) of 6.17 µM, a GI50 (A549 NSCLC) of 3.25 µM and a TGI (A549 NSCLC) greater than 100 µM. For the same compound, the GI50 (ACHN renal) was 3.88 µM, the TGI (ACHN renal) was greater than 100 µM and the GI50 (BT-549 breast) was 1.92 µM. It also gave a TGI (BT-549 breast) of 5.89 µM, a GI50 (CAKI-1 renal) of 1.48 µM and a TGI (CAKI-1 renal) of 5.1 µM. It also gave a GI50 (CCRF-CEM leukemia) of 3.18 µM, a TGI (CCRF-CEM leukemia) of 9.84 µM and a GI50 (COLO 205 colon) of 16.3 µM. The TGI (COLO 205 colon) was 34.8 µM, the GI50 (DU-145 prostate) was 3.3 µM and the TGI (DU-145 prostate) was greater than 100 µM. It also gave a GI50 (EKVX NSCLC) of 2.8 µM, a TGI (EKVX NSCLC) greater than 100 µM and a GI50 (HCC-2998 colon) of 3.31 µM. The TGI (HCC-2998 colon) was 13.9 µM, the GI50 (HCT-116 colon) was 3.12 µM and the TGI (HCT-116 colon) was 18.8 µM. The GI50 (HCT-15 colon) was 2.91 µM, the TGI (HCT-15 colon) was greater than 100 µM and the GI50 (HL-60(TB) leukemia) was 2.01 µM. It also gave a TGI (HL-60(TB) leukemia) of 6.13 µM, a GI50 (HOP-62 NSCLC) of 2.39 µM and a TGI (HOP-62 NSCLC) of 6.93 µM. It also gave a GI50 (HOP-92 NSCLC) of 0.95 µM, a TGI (HOP-92 NSCLC) of 4.48 µM and a GI50 (HS 578T breast) of 2.27 µM. For the same compound, the TGI (HS 578T breast) was 7.51 µM, the GI50 (HT29 colon) was 10.3 µM and the TGI (HT29 colon) was 75.8 µM. For the same compound, the GI50 (IGROV1 ovarian) was 3.02 µM, the TGI (IGROV1 ovarian) was greater than 100 µM and the GI50 (K-562 leukemia) was 1.58 µM. For the same compound, the TGI (K-562 leukemia) was greater than 100 µM, the GI50 (KM12 colon) was 3.07 µM and the TGI (KM12 colon) was 10.7 µM. It also gave a GI50 (LOX IMVI melanoma) of 3.21 µM, a TGI (LOX IMVI melanoma) of 11.2 µM and a GI50 (M14 melanoma) of 3.49 µM. The TGI (M14 melanoma) was greater than 100 µM, the GI50 (MALME-3M melanoma) was 1.62 µM and the TGI (MALME-3M melanoma) was 5.34 µM. The GI50 (MCF7 breast) was 2.51 µM, the TGI (MCF7 breast) was greater than 100 µM and the GI50 (MDA-MB-231 breast) was 1.76 µM. For the same compound, the TGI (MDA-MB-231 breast) was 4.41 µM, the GI50 (MDA-MB-435) was 1.73 µM and the TGI (MDA-MB-435) was 7.09 µM. For the same compound, the GI50 (MDA-MB-468 breast) was 1.87 µM, the TGI (MDA-MB-468 breast) was 5.67 µM and the GI50 (MOLT-4 leukemia) was 2.08 µM.
